The target in one series is p300 (Homo sapiens, UniProt Q09472). The series is described as follows: Binding to coactivator p300. From the text: ICG-001. Applicant's pharmacologic tools were identified using cell-based forward chemical genomic screens of small molecule secondary structure template chemical libraries (22).
In a further series the test system is mice. The series is described as follows: Topical treatment of mothers throughout pregnancy, offspring development. Type of series: in vivo, mouse. The note with it: mothers treated topically, 0.5M, conception to birth. The text has this: Acute Promyelocytic Leukemia (APL) is unique among myeloid leukemias due to its sensitivity to all-trans retinoic acid (ATRA), a derivative of vitamin A. Treatment with ATRA dissociates the NCOR-HDACL complex from RAR and allows DNA transcription and differentiation of the immature leukemic promyelocytes into mature granulocytes by targeting the oncogenic transcription factor and its aberrant action. […] A large number of scientific studies have also investigated a possible role for vitamin D in cancer prevention, including colon, prostate, breast, pancreatic and skin cancer. […] However, there are also reports of synergistic effects on the activation of gene expression by ATRA and Wnt for example (47). […] This is the same region of these coactivator proteins (i.e., CBP and p300) that partners with catenin (both beta and gamma) and the CBP/catenin antagonists (e.g., ICG-001) also bind to this region. These nuclear receptor ligands have many of the same differentiating effects on stem cell populations that applicant has observed with specific CBP/catenin antagonists. Although, both Vitamin A and D are required during development and have many beneficial health effects in adulthood, both are teratogenic at high levels. […]

The subject of the next series is Min mouse. In words: Min mouse polyp model. The class given is in vivo. From the text: Cancer. The importance of Wnt signaling in colorectal cancer is undisputed. Applicant's investigation on the therapeutic utility of ICG-001 therefore quite naturally began with colon cancer.
In series [1] the test system is fibroblasts from IPF patients. The series is described as follows: S100A4/FSP-1 expression in fibroblasts from IPF patients in vitro. Type of series: cell-based. The text has this:
Fibrosis. Idiopathic pulmonary fibrosis (IPF)/usual interstitial pneumonia (UIP), the most common of the idiopathic interstitial pneumonias, is a devastating, progressive disorder characterized by excessive fibroblast proliferation and extracellular matrix remodeling leading to lung destruction. There is currently no effective therapy for this uniformly fatal disease. An emerging paradigm proposes a central role for alveolar epithelial cell injury and dysregulated repair in the pathogenesis of IPF. Injury to the epithelium is thought to initiate a cascade of fibroblast activation and matrix deposition, which in predisposed hosts fails to resolve as it would in the course of normal wound repair. Epithelial cells undergo excessive apoptosis, whereas fibroblasts are less amenable to apoptosis and manifest increased survival. The well-characterized model of bleomycin-induced lung injury has been extensively used to investigate potential pathways involved in the pathogenesis of pulmonary fibrosis and to explore therapeutic approaches.

Series [2] concerns cerebral deposition of Aβ. In words: Aβ deposition in penta-transgenic mouse model of Alzheimer's disease. Type of series: in vivo. The note with it: 50 mg/kg/day, 2 months. The protocol: Applicant utilized a penta-transgenic mouse model of AD, which normally develops massive cerebral deposition of Aβ starting at 6 weeks of age. These mice were treated with either (A) ICG-001 (50 mg/kg/day) or (B) saline for 2 months. […] However, the effects of PS-1 mutations on the stability of beta-catenin, TCF/beta-catenin signaling, and thereby its potential role in AD remain controversial. […] In the CNS, EpB2 expression is associated with axonal guidance (16). […] In initial in vivo studies, applicant treated penta-transgenic mice that over express mutant APP (695) (Swedish (K670N, M671L), Florida (I716V) and London (V717I)) and PS-1 (M146L and L286V) mutations with ICG-001 for 2 months (months 2-4). These mice normally develop massive cerebral deposition of Aβ starting at 6 weeks of age.

For series [3], the system named is human anagen hair follicles. Particulars: cited from earlier work.

Chain of p300 (Q09472 whole entry, species assumed): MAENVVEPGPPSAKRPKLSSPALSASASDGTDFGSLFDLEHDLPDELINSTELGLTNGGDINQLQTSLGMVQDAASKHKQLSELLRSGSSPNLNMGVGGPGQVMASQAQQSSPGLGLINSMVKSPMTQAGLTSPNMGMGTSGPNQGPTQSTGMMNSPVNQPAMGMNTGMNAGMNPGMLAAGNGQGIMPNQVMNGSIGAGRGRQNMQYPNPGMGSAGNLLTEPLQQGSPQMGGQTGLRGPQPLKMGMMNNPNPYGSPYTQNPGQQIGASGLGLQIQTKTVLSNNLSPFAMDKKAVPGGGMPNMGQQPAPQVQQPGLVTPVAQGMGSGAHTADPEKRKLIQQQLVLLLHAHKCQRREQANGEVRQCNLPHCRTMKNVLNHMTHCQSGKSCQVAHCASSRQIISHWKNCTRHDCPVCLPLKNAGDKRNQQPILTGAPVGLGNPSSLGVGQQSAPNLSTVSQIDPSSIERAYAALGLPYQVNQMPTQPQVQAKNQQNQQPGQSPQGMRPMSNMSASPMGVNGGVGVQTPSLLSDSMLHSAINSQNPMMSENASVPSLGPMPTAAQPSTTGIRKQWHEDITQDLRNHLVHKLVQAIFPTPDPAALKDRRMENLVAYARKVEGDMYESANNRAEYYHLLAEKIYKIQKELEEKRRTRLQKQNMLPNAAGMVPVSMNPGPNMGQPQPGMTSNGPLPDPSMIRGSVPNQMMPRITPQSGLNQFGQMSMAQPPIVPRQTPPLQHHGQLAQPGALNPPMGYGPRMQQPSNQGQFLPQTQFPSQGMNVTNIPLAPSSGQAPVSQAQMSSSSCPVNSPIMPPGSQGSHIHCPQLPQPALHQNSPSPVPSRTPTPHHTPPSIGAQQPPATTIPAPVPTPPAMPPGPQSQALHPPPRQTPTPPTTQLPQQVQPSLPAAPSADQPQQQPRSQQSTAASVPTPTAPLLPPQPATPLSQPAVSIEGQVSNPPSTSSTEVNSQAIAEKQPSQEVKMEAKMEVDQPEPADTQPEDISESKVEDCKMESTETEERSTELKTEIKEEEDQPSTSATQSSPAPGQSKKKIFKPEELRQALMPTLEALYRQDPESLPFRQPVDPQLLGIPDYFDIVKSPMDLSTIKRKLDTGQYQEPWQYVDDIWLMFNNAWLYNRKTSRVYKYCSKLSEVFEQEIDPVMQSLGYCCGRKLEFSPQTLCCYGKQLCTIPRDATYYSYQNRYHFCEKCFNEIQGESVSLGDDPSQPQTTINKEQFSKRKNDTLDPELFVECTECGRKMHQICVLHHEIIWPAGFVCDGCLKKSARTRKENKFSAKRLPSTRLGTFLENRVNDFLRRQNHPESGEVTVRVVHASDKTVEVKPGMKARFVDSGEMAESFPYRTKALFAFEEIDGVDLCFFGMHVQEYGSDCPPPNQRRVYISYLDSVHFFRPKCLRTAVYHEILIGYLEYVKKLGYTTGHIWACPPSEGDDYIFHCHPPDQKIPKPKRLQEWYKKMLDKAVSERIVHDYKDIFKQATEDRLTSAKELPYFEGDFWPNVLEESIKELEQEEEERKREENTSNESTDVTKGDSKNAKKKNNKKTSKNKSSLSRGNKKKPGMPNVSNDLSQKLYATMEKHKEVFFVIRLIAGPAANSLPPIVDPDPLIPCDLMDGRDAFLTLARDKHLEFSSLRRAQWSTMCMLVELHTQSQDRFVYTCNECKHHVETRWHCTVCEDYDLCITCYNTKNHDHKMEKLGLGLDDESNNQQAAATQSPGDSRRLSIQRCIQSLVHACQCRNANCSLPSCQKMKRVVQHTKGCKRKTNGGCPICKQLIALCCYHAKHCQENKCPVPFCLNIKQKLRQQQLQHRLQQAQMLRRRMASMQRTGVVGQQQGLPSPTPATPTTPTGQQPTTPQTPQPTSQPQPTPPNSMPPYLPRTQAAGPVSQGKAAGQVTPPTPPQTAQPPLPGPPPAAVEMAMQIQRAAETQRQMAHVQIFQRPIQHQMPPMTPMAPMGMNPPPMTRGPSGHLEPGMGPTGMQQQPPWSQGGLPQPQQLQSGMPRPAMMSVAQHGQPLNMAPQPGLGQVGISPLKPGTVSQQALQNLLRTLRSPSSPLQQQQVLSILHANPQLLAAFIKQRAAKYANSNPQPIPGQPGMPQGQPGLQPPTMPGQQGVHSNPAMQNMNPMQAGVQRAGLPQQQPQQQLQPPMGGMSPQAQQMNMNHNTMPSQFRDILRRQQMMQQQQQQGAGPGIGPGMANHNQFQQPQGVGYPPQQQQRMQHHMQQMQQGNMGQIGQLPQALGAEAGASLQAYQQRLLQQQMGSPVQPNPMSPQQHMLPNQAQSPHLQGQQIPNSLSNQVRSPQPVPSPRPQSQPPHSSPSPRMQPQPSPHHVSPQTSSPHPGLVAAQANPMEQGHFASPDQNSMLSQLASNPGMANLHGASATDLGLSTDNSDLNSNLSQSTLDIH

As to `O=C1[C@H](Cc2ccc(O)cc2)N2C(=O)CCN(C(=O)NCc3ccccc3)[C@H]2CN1Cc1cccc2ccccc12` [ICG-001], the “binding to p300” value at p300 was “not to its closely related homolog p300”. Also, in the series on mice, the fertility of offspring result is given as “could breed a second generation”; the “weight and size of offspring at 6 weeks of age” value is “normal weight and size”. Also, in the series on Min mouse, the polyps entry is given as “reducing polyps”. Besides, in series [1], the “expression of S100A4/FSP-1” value is recorded as “significantly decreased”. In series [2], the “Aβ staining in the parietal lobe” value is reported as “significant (A) decrease”. Further, the amyloid plaque formation result in series [2] (immunohistochemistry) is “significant decrease”. Further, in series [3] (dose-dependent), the hair fiber elongation result is reported as “significantly reduced”. Further, the survivin expression result in series [3] (microdissected hair follicle) was “decreased”.
